This note sets out measurements from US12024531B2, “Immunoproteasome inhibitors” (Principia Biopharma Inc., priority 2017, dated 2024).

By IC50 is commonly meant the concentration that gives 50% inhibition.

Test [1] addresses immunoproteasome LMP7/B5i subunit (Homo sapiens, UniProt P28062). The experiment in a line: Caliper-based proteasome enzymatic activity assay, LMP7. The class given is biochemical. To be noted: human recombinant immunoproteasome 0.3 nM, FAM peptide substrate 1 μM, rt 3 h.
The target in test [2] is constitutive proteasome β5c subunit (Homo sapiens, UniProt P28074). The experiment in a line: Caliper-based proteasome enzymatic activity assay, β5c. It is filed as biochemical. To be noted: human recombinant constitutive proteasome 0.3 nM, FAM peptide substrate 1 μM, rt 3 h.
In test [3] the target is immunoproteasome LMP2 subunit (Homo sapiens, UniProt P28065). The experiment in a line: Caliper-based proteasome enzymatic activity assay, LMP2. The class given is biochemical. To be noted: human recombinant immunoproteasome 0.3 nM, FAM peptide substrate 1 μM, rt 2 h.
A further test concerns the target PBMC LMP7 (Homo sapiens, UniProt P28062). Nature of the test: Inhibition of proteasome activity in cells (Proteasome-Glo), PBMC/LMP7. The class given is cell-based. To be noted: 2 h incubation at 37° C. As for the experimental part: The cell-based effects of a compound described herein on the immunoproteasome were determined by measuring inhibition of proteasome activity in cells using the Proteasome-Glo™ Cell-Based Reagent (Promega, Madison WI). The Proteasome-Glo™ assay contains a specific luminogenic proteasome substrate in a buffer optimized for cell permeabilization, proteasome activity, and luciferase activity. For the chymotrypsin-like activity (LMP7 and 05c), the peptide substrate is Suc-LLVY-aminoluciferin (Succinyl-leucine-leucine-valine-tyrosine-aminoluciferin). Cleavage of the substrate by proteasome results in luminescent signal which is proportional to the proteasome activity. The cell line THP-1 (a monocytic leukemia cell line enriched in immunoproteasome), the cell line HT-29 (a colorectal adenocarcinoma cell line enriched in constitutive proteasome), and primary human peripheral blood mononuclear cells (PBMC) were used to assess proteasome activity. Cells were seeded in a 96-well plate at 10,000 cells per well in RPMI 1640 high glucose medium with 10% fetal bovine serum (FBS). Compound dilutions were added to cells starting at a concentration of 5 uM and decreasing in tripling dilutions. The final DMSO concentration was 1%. The concentration range was adjusted as needed for compounds of different potencies. The cells treated with compounds were incubated for 2 h at 37° C. in 5% CO2. At the end of the 2 hour incubation period, cells were transferred to white 384 well assay plates. 20 uL of Proteasome-Glo™ Reagent was added to each well and incubated for 10 minutes at rt. The plate was read in the Analyst HT instrument (Molecular Devices, Sunnyvale, CA) using luminescence mode. The percent inhibition of activity was plotted as a function of log compound concentration. The IC50 was then calculated for each compound using Prism software from GraphPad Software Inc. (San Diego, CA).

SMILES strings stand for the structures.

Turning to `CCN(CC)C(=O)C(C#N)=Cc1cccc(CCOC(=O)N[C@@H](Cc2ccccc2)B(O)O)c1` [Example 52, (R)-(1-(((3-(2-cyano-3-(diethylamino)-3-oxoprop-1-en-1-yl)phenethoxy)carbonyl)amino)-2-phenylethyl)boronic Acid], the IC50 in test [1] was 10.3 nM; in test [2], greater than 5000 nM; in test [3], greater than 5000 nM; on PBMC LMP7, 44 nM.
Consider `CCN(CC)C(=O)C(C#N)=Cc1cccc(CCOC(=O)N[C@@H](Cc2ccc(C)cc2)B(O)O)c1` [Example 55, (R)-(1-(((3-(2-cyano-3-(diethylamino)-3-oxoprop-1-en-1-yl)phenethoxy)carbonyl)amino)-2-(p-tolyl)ethyl)boronic Acid], for which the IC50 in test [1] is 2 nM; in test [2], 1180 nM; in test [3], greater than 5000 nM; against PBMC LMP7, 4 nM.
On to `N#CC(=Cc1cccc(CCOC(=O)N[C@@H](Cc2ccccc2)B(O)O)c1)c1ncccn1` [Example 60, (R)-(1-(((3-(2-cyano-2-(pyrimidin-2-yl)vinyl)phenethoxy)carbonyl)amino)-2-phenylethyl)boronic Acid], for which the IC50 in test [1] is 1.1 nM; in test [2], 167 nM; in test [3], 1020 nM; at PBMC LMP7, 2 nM.
The like results for `CCN(CC)C(=O)C(C#N)=Cc1cccc(CCOC(=O)N[C@@H](Cc2coc3ccccc23)B(O)O)c1` [Example 58, (R)-(2-(benzofuran-3-yl)-1-(((3-(2-cyano-3-(diethylamino)-3-oxoprop-1-en-1-yl)phenethoxy)carbonyl)amino)ethyl)boronic Acid] were, in that order, 1.7 nM, 255 nM, greater than 5000 nM and 12 nM.
The like results for `N#CC(=Cc1cccc(OCCC(=O)N[C@@H](CCc2ccccc2)B(O)O)c1)c1ccccn1` [Example 21, (R)-(1-(3-(3-(2-cyano-2-(pyridin-2-yl)vinyl)phenoxy)propanamido)-3-phenylpropyl)boronic Acid] were, in that order, 27 nM, 260 nM, greater than 5000 nM and 8 nM.
On to `CN(C)C(=O)C(C#N)=Cc1cccc(OCCC(=O)N[C@@H](Cc2ccccc2)B(O)O)c1F` [Example 37, (R)-(1-(3-(3-(2-cyano-3-(dimethylamino)-3-oxoprop-1-en-1-yl)-2-fluorophenoxy)propanamido)-2-phenylethyl)boronic Acid], for which the IC50 turned out to be 16.8 nM in test [1], 495 nM in test [2] and 223 nM in test [3].
Turning to `N#CC(=Cc1cc(OCCC(=O)N[C@@H](Cc2ccccc2)B(O)O)ccc1F)c1ccccn1` [Example 43, (R)-(1-(3-(3-(2-cyano-2-(pyridin-2-yl)vinyl)-4-fluorophenoxy)propanamido)-2-phenylethyl)boronic Acid], the 50% inhibitory concentration (IC50) in test [1] was found to be 2.9 nM; in test [2], 39.4 nM; in test [3], 122 nM.
Regarding `CCN(C(=O)C(C#N)=Cc1cccc(CCOC(=O)N[C@@H](Cc2ccccc2)B(O)O)c1)C1CCOCC1` [Example 70, (R)-(1-(((3-(2-cyano-3-(ethyl(tetrahydro-2H-pyran-4-yl)amino)-3-oxoprop-1-en-1-yl)phenethoxy)carbonyl)amino)-2-phenylethyl)boronic Acid], the IC50 in test [1] is 0.6 nM; in test [2] it was greater than 5000 nM; in test [3], 4250 nM; at PBMC LMP7, 2 nM.
Regarding `Cc1ccc(C[C@H](NC(=O)OCCc2cccc(C=C(C#N)C(=O)N(C)C)c2)B(O)O)cc1` [Example 50, (R)-(1-(((3-(2-cyano-3-(dimethylamino)-3-oxoprop-1-en-1-yl)phenethoxy)carbonyl)amino)-2-(p-tolyl)ethyl)boronic Acid], the IC50 is 1.5 nM in test [1], 1090 nM in test [2], greater than 5000 nM in test [3] and 4 nM against PBMC LMP7.
With `N#CC(=Cc1cccc(CCOC(=O)N[C@@H](Cc2ccccc2)B(O)O)c1)c1ccccn1` [Example 36, (R)-(1-(((3-(2-cyano-2-(pyridin-2-yl)vinyl)phenethoxy)carbonyl)amino)-2-phenylethyl)boronic Acid], the values for the IC50 in test [1], in test [2] and in test [3] were 8 nM, 320 nM and 3540 nM, respectively.
The like results for `Cc1ccc(C[C@H](NC(=O)OCCc2cccc(C=C(C#N)c3ccc(C(F)(F)F)cn3)c2)B(O)O)cc1` [Example 81, (R)-(1-(((3-(2-cyano-2-(5-(trifluoromethyl)pyridin-2-yl)vinyl)phenethoxy)carbonyl)amino)-2-(p-tolyl)ethyl)boronic Acid] were, in that order, 5.2 nM, 438 nM and 2830 nM.
The like results for `CCN(CC)C(=O)C(C#N)=Cc1cccc(CCNC(=O)N[C@@H](Cc2ccccc2)B(O)O)c1` [Example 61, (R)-(1-(3-(3-(2-cyano-3-(diethylamino)-3-oxoprop-1-en-1-yl)phenethyl)ureido)-2-phenylethyl)boronic Acid] were, in that order, 43.2 nM, greater than 5000 nM and greater than 5000 nM.
The like results for `COc1cccnc1C(C#N)=Cc1cccc(OCCC(=O)N[C@@H](Cc2ccccc2)B(O)O)c1` [Example 51, (R)-(1-(3-(3-(2-cyano-2-(3-methoxypyridin-2-yl)vinyl)phenoxy)propanamido)-2-phenylethyl)boronic Acid] were, in that order, 20.2 nM, 122 nM and 306 nM.
In the case of `N#CC(=Cc1cccc(OCCC(=O)N[C@@H](Cc2ccccc2)B(O)O)c1)c1ccc(C(F)(F)F)cn1` [Example 33, (R)-(1-(3-(3-(2-cyano-2-(5-(trifluoromethyl)pyridin-2-yl)vinyl)phenoxy)propanamido)-2-phenylethyl)boronic Acid], the IC50 amounted to 5 nM in test [1], 95 nM in test [2] and 100 nM in test [3].
The like results for `CCN(C(=O)C(C#N)=Cc1cccc(CCOC(=O)N[C@@H](Cc2ccc(C)cc2)B(O)O)c1)C1CCOCC1` [Example 88, (R)-(1-(((3-(2-cyano-3-(ethyl(tetrahydro-2H-pyran-4-yl)amino)-3-oxoprop-1-en-1-yl)phenethoxy)carbonyl)amino)-2-(p-tolyl)ethyl)boronic Acid] were, in that order, 1.2 nM, 802 nM and greater than 5000 nM.
The like results for `Cc1ccc(C[C@H](NC(=O)NCCc2cccc(C=C(C#N)c3ccccn3)c2)B(O)O)cc1` [Example 77, (R)-(1-(3-(3-(2-cyano-2-(pyridin-2-yl)vinyl)phenethyl)ureido)-2-(p-tolyl)ethyl)boronic Acid] were, in that order, 42 nM, 2150 nM and greater than 5000 nM.
The like results for `CC(C)N(C(=O)C(C#N)=Cc1cccc(CCOC(=O)N[C@@H](Cc2ccccc2)B(O)O)c1)C(C)C` (single isomer, unassigned) [Example 75] were, in that order, 1.4 nM, 3020 nM and 2520 nM.
Consider `N#CC(=Cc1ccc(F)c(OCCC(=O)N[C@@H](Cc2ccccc2)B(O)O)c1)c1ccccn1` [Example 28, (R)-(1-(3-(5-(2-cyano-2-(pyridin-2-yl)vinyl)-2-fluorophenoxy)propanamido)-2-phenylethyl)boronic Acid], for which the results for the IC50 in test [1], in test [2] and in test [3] were 2 nM, 34 nM and 49 nM, respectively.
As for `N#CC(=Cc1cccc(CCOC(=O)N[C@@H](Cc2ccccc2)B(O)O)c1)c1ccc(C(F)(F)F)cn1` [Example 56, (R)-(1-(((3-(2-cyano-2-(5-(trifluoromethyl)pyridin-2-yl)vinyl)phenethoxy)carbonyl)amino)-2-phenylethyl)boronic Acid], the IC50 in test [1] turned out to be 3.8 nM; in test [2], 439 nM; in test [3], 1770 nM.
The like results for `N#CC(=Cc1cccc(OCCC(=O)N[C@@H](Cc2ccccc2)B(O)O)c1F)c1ccccn1` [Example 40, (R)-(1-(3-(3-(2-cyano-2-(pyridin-2-yl)vinyl)-2-fluorophenoxy)propanamido)-2-phenylethyl)boronic Acid] were, in that order, 8.5 nM, 70 nM and 73.9 nM.
Consider `C[C@@H]1COC[C@@H](C)N1C(=O)C(C#N)=Cc1cccc(CCOC(=O)N[C@@H](Cc2ccccc2)B(O)O)c1` [Example 65, ((R)-1-(((3-(2-cyano-3-((3R,5R)-3,5-dimethylmorpholino)-3-oxoprop-1-en-1-yl)phenethoxy)carbonyl)amino)-2-phenylethyl)boronic Acid], for which the values for the IC50 in test [1], in test [2] and in test [3] were 0.6 nM, 1190 nM and 3560 nM, respectively.
